Laboratory results: publication PMC8394356 (Biomedicines, 2021)
pIC50: −log10 of the molar value. “And” between values parts separate entries of the source, which are not always exact repeats. Equal values may be shown once. Where a name gives a salt, the structure may show the parent alone. Read-outs that look alike come from different tables or passages of the source.

Assays:
[1] = system: scopolamine-induced amnesiac ICR mice; assay: Passive avoidance test in scopolamine-induced amnesiac ICR mice; assay type: in vivo; conditions: scopolamine 1 mg/kg i.p.
Method: The oral administration of TT-hull extracts or purified compounds in scopolamine-induced amnesiac ICR mice was performed according to the previous report, with some modifications. The 8-week-old male ICR mice were purchased from the Laboratory Animal Center, College of Medicine, National Taiwan University (Taipei, Taiwan). Normal diets (Prolab® RMH2500, Jefferson City, MO, USA) and water were provided during the animal experiments. All animal experimental protocols were approved by the Institutional Animal Care and Use Committee of Taipei Medical University (LAC-2016-0275). After one week of acclimation, for treatments of TT-hull extracts to test prevention, the mice were randomly divided into seven groups (6 heads/group), including the blank, the control, the donepezil-positive control, and the four extract-administered groups. […] Except for the blank group, the mice in each group were intraperitoneally injected with scopolamine (1 mg/kg) 30 min after the oral sample administration, and the mice in the blank group were injected with an equal volume of PBS. After being injected with scopolamine or PBS for another 30 min, each mouse was evaluated by a passive avoidance test at day 13 to day 14 and by the Morris water maze from day 17 to day 19. At the end of the experiments at day 20, the mice were sacrificed. For oral administration of purified compounds to test prevention, the ICR mice were pre-administered orally with TT-1 (100 mg/kg, 200 mg/kg) or TT-2 (300 mg/kg) once a day by gavage from day 1 to day 5; […]. From day 6 to day 11, the procedure was the same for the oral administration of the TT-hull extracts. Each mouse was evaluated by a passive avoidance test at day 6 to day 7 and by the Morris water maze from day 8 to day 10. […]
The passive avoidance test and Morris water maze were used to evaluate the learning and memory functions of scopolamine-treated mice after the treatments with TT-hull extracts or purified compounds, by following the previous report. […] The time for which each mouse stayed in the light box (step-through latency of the acquisition trial, sec) was recorded. […] On the second day of the passive avoidance test (as the retention trial), the same protocol was performed, except that there were no electric foot shocks in the dark box, and the time for which each mouse stayed in the light box (step-through latency of the retention trial) was recorded. […] For the second training procedure of the third day (as the reference memory task), the time required for the mouse to find and climb onto the platform from the starting point was recorded as the latency (sec). The platform was then removed (as the probe test), and the swimming time and crossing time in the platform quadrant were recorded for each mouse.

[2] = cited from earlier work
[3] = Oxygen radical absorbance capacity (ORAC), OxiSelect Assay Kit; conditions: for ORAC activities relative to those of Trolox / ORAC activities, fold higher than those of Trolox: compound at 10 μM; for ORAC activities relative to those of Trolox: % of Trolox; for ORAC values: compound at a concentration of 10 μM
Method: The antioxidant index of free radical scavenging activities of the extracts (1.5 or 2.5 μg/mL) and purified compounds (10 μM) of TT-hull were determined by a commercial OxiSelect™ Assay Kit for oxygen radical absorbance capacity (ORAC) determination. The standard curve of ORAC was plotted using different concentrations of water-soluble vitamin E analog (the compound’s name was Trolox, 6-hydroxy-2,5,7,8-tetramethylchroman-2-carboxylic acid) at 2.5, 5, 10, 20, 40, and 60 μM. Therefore, the ORAC activities of TT-hull extracts or purified compounds were calculated equivalently to the Trolox effects and expressed as Trolox equivalents (μM).

[4] = target: T1, recombinant human AChE (Homo sapiens, UniProt P22303); assay: biochemical; conditions: for pIC50: isolated compounds from TT-hull-50EE, recombinant human AChE
T1 construct: purchased R&D Systems Inc. 7574-CE
T1 sequence (P22303 32-614): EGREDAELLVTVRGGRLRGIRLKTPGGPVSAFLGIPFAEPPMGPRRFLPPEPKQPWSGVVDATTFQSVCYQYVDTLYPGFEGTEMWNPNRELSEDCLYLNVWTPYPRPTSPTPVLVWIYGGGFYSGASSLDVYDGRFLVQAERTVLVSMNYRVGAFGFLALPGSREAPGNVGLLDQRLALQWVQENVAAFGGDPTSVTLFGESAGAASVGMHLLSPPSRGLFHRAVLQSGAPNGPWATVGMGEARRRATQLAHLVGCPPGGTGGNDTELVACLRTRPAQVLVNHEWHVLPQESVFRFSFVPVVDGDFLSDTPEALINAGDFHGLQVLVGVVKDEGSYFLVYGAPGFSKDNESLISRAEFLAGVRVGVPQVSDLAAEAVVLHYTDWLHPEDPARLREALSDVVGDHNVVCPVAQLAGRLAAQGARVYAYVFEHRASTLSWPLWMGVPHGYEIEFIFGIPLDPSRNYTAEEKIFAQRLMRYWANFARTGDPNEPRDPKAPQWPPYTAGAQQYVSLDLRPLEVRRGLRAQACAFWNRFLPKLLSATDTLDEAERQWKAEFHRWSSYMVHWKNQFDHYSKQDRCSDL
Method: The acetylthiocholine iodide and DTNB were used for in vitro AChE inhibitory activity assays following the previous report. […] An equal volume of DMSO instead of the sample solution was used as a blank and expressed as 100% AChE activity. The absorbance changes were recorded at 405 nm for 10 min. The AChE inhibition (%) was calculated as follows: [(A405blank−A405sample)/(A405blank)] × 100%.

[5] = target: T2, AChE activity in brain extracts (Mus musculus, UniProt P21836); assay type: in vivo; conditions: oral TT-1 200 mg/kg, donepezil 5 mg/kg; scopolamine-induced amnesiac mice
T2 construct: from tissue; host or cells: whole brain of ICR mice
T2 sequence (P21836 32-614): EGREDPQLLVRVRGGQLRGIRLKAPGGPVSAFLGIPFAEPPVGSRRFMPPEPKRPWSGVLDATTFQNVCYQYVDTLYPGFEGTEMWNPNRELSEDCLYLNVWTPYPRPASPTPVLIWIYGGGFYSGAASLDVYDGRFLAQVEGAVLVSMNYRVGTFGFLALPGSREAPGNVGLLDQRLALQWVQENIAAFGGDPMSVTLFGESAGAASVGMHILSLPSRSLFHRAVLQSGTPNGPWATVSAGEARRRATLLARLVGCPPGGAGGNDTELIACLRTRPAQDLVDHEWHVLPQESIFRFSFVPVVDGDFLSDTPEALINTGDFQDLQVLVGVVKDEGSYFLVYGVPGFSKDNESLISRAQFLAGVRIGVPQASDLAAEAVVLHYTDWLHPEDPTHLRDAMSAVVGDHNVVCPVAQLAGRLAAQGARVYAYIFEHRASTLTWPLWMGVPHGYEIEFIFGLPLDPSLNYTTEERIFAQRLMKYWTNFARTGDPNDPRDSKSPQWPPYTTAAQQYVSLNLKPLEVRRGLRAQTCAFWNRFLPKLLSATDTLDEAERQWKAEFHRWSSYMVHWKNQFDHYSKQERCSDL
Method: (§1) At the end of the TT-1 and TT-2 treatments, mice were sacrificed, and the whole brain of each ICR mouse was isolated and immediately stored at −80 °C for the measurement of residual AChE activity and the reduced GSH levels. The whole brain of each mouse was ground into powder by means of a mortar and pestle in liquid nitrogen and then extracted by adding 1 mL of 100 mM phosphate buffer (pH 7.5) to the ice bath. […] The residual AChE activity of each brain extract was expressed as [A405sample−A405sample blank]/μg protein.

[6] = system: reduced form GSH contents in brain extracts; assay: Reduced GSH levels in brain tissue extracts of treated mice; assay type: in vivo; conditions: oral TT-1 200 mg/kg, donepezil 5 mg/kg; scopolamine-induced amnesiac mice
Method: as §1

[7] = system: scopolamine-induced amnesiac ICR mice; assay: Morris water maze in scopolamine-induced amnesiac ICR mice; assay type: in vivo; conditions: donepezil 5 mg/kg, scopolamine 1 mg/kg i.p.
Method: The oral administration of TT-hull extracts or purified compounds in scopolamine-induced amnesiac ICR mice was performed according to the previous report, with some modifications. The 8-week-old male ICR mice were purchased from the Laboratory Animal Center, College of Medicine, National Taiwan University (Taipei, Taiwan). Normal diets (Prolab® RMH2500, Jefferson City, MO, USA) and water were provided during the animal experiments. All animal experimental protocols were approved by the Institutional Animal Care and Use Committee of Taipei Medical University (LAC-2016-0275). After one week of acclimation, for treatments of TT-hull extracts to test prevention, the mice were randomly divided into seven groups (6 heads/group), including the blank, the control, the donepezil-positive control, and the four extract-administered groups. […] Except for the blank group, the mice in each group were intraperitoneally injected with scopolamine (1 mg/kg) 30 min after the oral sample administration, and the mice in the blank group were injected with an equal volume of PBS. After being injected with scopolamine or PBS for another 30 min, each mouse was evaluated by a passive avoidance test at day 13 to day 14 and by the Morris water maze from day 17 to day 19. At the end of the experiments at day 20, the mice were sacrificed. For oral administration of purified compounds to test prevention, the ICR mice were pre-administered orally with TT-1 (100 mg/kg, 200 mg/kg) or TT-2 (300 mg/kg) once a day by gavage from day 1 to day 5; […]. From day 6 to day 11, the procedure was the same for the oral administration of the TT-hull extracts. Each mouse was evaluated by a passive avoidance test at day 6 to day 7 and by the Morris water maze from day 8 to day 10. At the end of the experiments at day 11, the mice were sacrificed, and the brain tissue was isolated and stored at −80 °C for further measurements.
The passive avoidance test and Morris water maze were used to evaluate the learning and memory functions of scopolamine-treated mice after the treatments with TT-hull extracts or purified compounds, by following the previous report. The apparatus of the passive avoidance test included a light box and a dark box separated by a guillotine door in a shuttle chamber (AccuScan Instruments Inc, Columbus, OH, USA), and a wired metal floor was placed in the dark box to provide electric foot shocks during the acquisition trial. On the first day of the passive avoidance test (as the acquisition trial), each mouse was acclimatized to the shuttle chamber for 30 min, and then placed in the light box. The mouse entered the dark box, the guillotine door was immediately closed, and, at the same time, an electric shock (0.3 mA) was delivered for 3 sec to the mouse via the wired metal floor. The time for which each mouse stayed in the light box (step-through latency of the acquisition trial, sec) was recorded. […] On the second day of the passive avoidance test (as the retention trial), the same protocol was performed, except that there were no electric foot shocks in the dark box, and the time for which each mouse stayed in the light box (step-through latency of the retention trial) was recorded. For the Morris water maze evaluations, a three-successive-day training protocol was performed; each mouse was trained for 1 min to find and climb onto the platform twice a day at 30 min intervals. For the second training procedure of the third day (as the reference memory task), the time required for the mouse to find and climb onto the platform from the starting point was recorded as the latency (sec). The platform was then removed (as the probe test), and the swimming time and crossing time in the platform quadrant were recorded for each mouse.

[8] = target: T3, Aβ (1-42) peptide (Homo sapiens, UniProt P05067); assay: Inhibition of Aβ (1-42) aggregation in vitro (ThT fluorescent assay); assay type: biochemical; conditions: for inhibition at 10 µM: read-out: inhibition of Aβ aggregation
T3 construct: the synthetic Aβ (1-42) peptide was weighed in an Eppendorf tube; purchased Kelowna International Scientific Inc; host or cells: synthetic peptide
T3 sequence (P05067 672-713): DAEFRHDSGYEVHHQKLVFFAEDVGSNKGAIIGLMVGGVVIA
Method: The ThT fluorescent assay was used to monitor the isolated compounds from the TT-hull on inhibition of Aβ (1-42) peptide aggregations. For the preparation of the Aβ stock film, the synthetic Aβ (1-42) peptide was weighed in an Eppendorf tube and dissolved in HFIP to prepare a 1 mM stock solution; then, HFIP solvent was evaporated to form the Aβ (1-42) film. The stock film was dissolved in 100 μL of 60 mM NaOH, and further diluted with 50 mM phosphate buffer (pH7.4, containing 150 mM sodium chloride, 1 mM EDTA, and 0.02% sodium azide). The 125 μL working solution contained 10 μM Aβ (1-42) peptide, purified compounds (10, 20, and 40 μM in DMSO), and 10 μM ThT solution, which was gently shaken at 37 °C for 24 h. The mixture without the sample additions was the control. The fluorescence ratios of Ex440nm/Em486nm were recorded at a time of 0 h and 24 h, and changes in fluorescence over a 24 h period were expressed as ΔE. The inhibition of Aβ aggregation (%) was calculated as [(ΔEcontrol−ΔEsample)/(ΔEcontrol)] × 100%.

[9] = system: scopolamine-induced amnesiac mice; conditions: 10 mg/kg, with or without nanoparticle-delivered formulation; cited from earlier work
[10] = purified compound experiment, oral TT-1 100 and 200 mg/kg, TT-2 300 mg/kg, donepezil 5 mg/kg
[11] = IC50 of AChE inhibitory activity
[12] = purified compound experiment, oral TT-1 200 mg/kg
[13] = 1:1 ratio of Aβ to compound, 10 μM:10 μM, 37 °C, 24 h
[14] = 1:2 ratio of Aβ to compound, 10 μM to 20 μM, 37 °C, 24 h
[15] = 1:4 ratio of Aβ to compound, 10 μM to 40 μM, 37 °C, 24 h
[16] = read-out: IC50 of AChE inhibitory activity
[17] = extract experiment, oral 50EE or HWE 100 and 200 mg/kg

Structure (SMILES) | step-through latency in the retention trial vs control [1, 10] | ORAC values [3] [μM Trolox equivalents] | inhibition at 10 µM [8, 13] [%] | inhibition of Aβ aggregation [8, 14] [%] | inhibition of Aβ aggregation [8, 15] [%] | ORAC activities, fold higher than those of Trolox [3] | pIC50 [4, 16] | further results
O=C(OC1O[C@@H]2COC(=O)c3cc(O)c(O)c(O)c3-c3c(cc(O)c(O)c3O)C(=O)O[C@H]2[C@H](OC(=O)c2cc(O)c(O)c(O)c2)[C@H]1OC(=O)c1cc(O)c(O)c(O)c1)c1cc(O)c(O)c(O)c1 (some centres unmarked) [TT-1, Tellimagrandin II] | showed longer step-through latency | 5.1 | 75.8 | 100 | 100 |  |  | remaining contents ([2]; acidic buffers (pH 2 or pH 4) and simulated gastric fluids (pH 1.2)): higher than 90%; residual content ([2]; simulated intestinal fluids (pH 7.5) at 37 °C for 9 h): 31.40%; ORAC activities relative to those of Trolox [3]: 50%; pIC50 [4, 11]: 4.73; AChE activity in brain extracts vs control [5]: lower AChE activity; reduced form GSH contents in brain extracts vs control [6]: higher reduced form GSH contents; crossing numbers in the target quadrant, probe test, vs control [7, 12]: higher crossing numbers in the target quadrant; time spent in the target quadrant, probe test, vs control [7, 12]: longer time spent in the target quadrant
O=C(OC[C@H]1O[C@@H](OC(=O)c2cc(O)c(O)c(O)c2)[C@H](OC(=O)c2cc(O)c(O)c(O)c2)[C@@H](OC(=O)c2cc(O)c(O)c(O)c2)[C@@H]1O)c1cc(O)c(O)c(O)c1 [TT-2, 1,2,3,6-tetra-O-galloyl-β-D-glucopyranoside] | no significant differences (p > 0.05) | 18.7 | 58.5 | 88.08 |  | close to two-fold higher | 4.07 | 
O=C(O[C@@H]1O[C@H](CO)[C@@H](O)[C@H](OC(=O)c2cc(O)c(O)c(O)c2)[C@H]1OC(=O)c1cc(O)c(O)c(O)c1)c1cc(O)c(O)c(O)c1 [TT-3, 1,2,3-tri-O-galloyl-β-D-glucopyranoside] |  | 15.1 | 42.7 | 92.44 |  | close to two-fold higher | 3.43 | 
O=C(OC[C@H]1O[C@@H](OC(=O)c2cc(O)c(O)c(O)c2)[C@H](OC(=O)c2cc(O)c(O)c(O)c2)[C@@H](O)[C@@H]1O)c1cc(O)c(O)c(O)c1 [TT-4, 1,2,6-tri-O-galloyl-β-D-glucopyranoside] |  | 18.1 | 54.6 | 86.82 | 100 | close to two-fold higher | < 3.10 | inhibition at 800 µM ([4]; at concentration of 800 μM): < 50%
O=C(O)c1cc(O)c(O)c(O)c1 [TT-6, gallic acid] |  | 23.7 | 37.2 | 77.73 | 88.19 | 2.4 fold |  | learning behavior functions in the probe test of the Morris water maze [9]: showed improved learning behavior functions; pIC50 [4, 11]: 3.61
O=C(O[C@H]1[C@@H]2OC(=O)c3cc(O)c(O)c(O)c3-c3c(cc(O)c(O)c3O)C(=O)OC[C@H]2OC(O)[C@@H]1OC(=O)c1cc(O)c(O)c(O)c1)c1cc(O)c(O)c(O)c1 (some centres unmarked) [TT-8, tellimagrandin I] |  | 7.5 |  | 97.13 | 100 |  | 4.73 and 4.74 | ORAC activities relative to those of Trolox [3]: 75%; inhibition at 10 µM [8]: 66.6%
COc1cc2c(cc1OC)C(=O)C(CC1CCN(Cc3ccccc3)CC1)C2 (centres unmarked) [donepezil, donepezil hydrochloride] | showed longer step-through latency |  |  |  |  |  |  | step-through latency in the retention trial vs control ([1]; extract experiment, oral 50EE or HWE 100 and 200 mg/kg daily day 1-20, donepezil 5 mg/kg day 11-20): remained for a longer period of time in the light box; crossing numbers in the target quadrant, probe test, vs control [7, 17]: higher crossing numbers in the target quadrant; time spent in the target quadrant, probe test, vs control [7, 17]: spent more time in the target quadrant; crossing numbers in the target quadrant, probe test, vs control [7, 12]: higher crossing numbers in the target quadrant; time spent in the target quadrant, probe test, vs control [7, 12]: longer time spent in the target quadrant
